Experimental data as given in PMC12652692, “Synthesis and In Vitro Anticancer Evaluation of Novel Phosphonium Derivatives of Chrysin” (International Journal of Molecular Sciences, 2025).

Assays:
Type in all cases: cell-based
[1] = test system: 60 human cancer cell lines; assay: NCI60 one-dose screen, overall mean; conditions: mean over all 60 cell lines, read-out: Mean growth percent
Procedure: The screening results are presented in the Supplementary Materials (Table S1), where the cytotoxicity was determined for the 10 µM concentration. […] The negative numbers indicate significant decreases in the cell number. […] Compared to the reference chrysin (2), all phosphonium hybrids (3a–h) had significant antiproliferative activities. […] At the same time, it should be noted that more than 60% average reduction was also obtained in the case of the other examined conjugates (3a–h).
A detailed description of the NCI screening procedures, including the one-dose and five-dose tests, can be found in the Supplementary Materials, on the website of NCI [39], and in our previous work.
A detailed description of the NCI screening procedures can also be found on the website of NCI [39], and in our […]
All candidates were examined at first at a single high dose (10 μM) in the full NCI60 cell panel. The value reported for the one-dose test is growth relative to the no-drug control and relative to the time zero number of cells. This made possible the disclosure of both growth inhibition (numbers between 0 and 100) and lethality (numbers less than 0). For example, a value of 100 means no growth inhibition. A value of 20 would mean 80% growth inhibition. A value of 0 means no net growth over the course of the analysis. A value of −20 would mean 20% lethality. A value of −100 means all cells are dead. […]
concentration levels. The human tumor cell lines of the cancer screening panel were grown in RPMI 1640 medium containing 5% fetal bovine serum and 2 mM l-glutamine. Characteristically, cells were injected in 96-well microtiter plates in 0.1 mL at plating densities ranging from 5000 to 40,000 cells/well, depending on the doubling time of individual cell lines. After cell inoculation, the microtiter plates were incubated at 37 °C, 5% carbon dioxide, 95% air, and 100% relative humidity for 24 hours before the addition of tested compounds. After 24 hours, 2 plates of each cell line were fixed in situ with Cl3COOH (TCA), to represent a measurement of the cell population for each cell line at the time of drug addition (tz). Tested compounds were solubilized in DMSO at 400-fold the desired final maximum test concentration and stored frozen before application. In the course of the drug addition, an aliquot of frozen concentrate was thawed and diluted to twice the desired final maximum test concentration with a complete medium containing 50 μg mL−1 gentamicin. Additional four, 10-fold or ½ log serial dilutions were produced to furnish a total of five drug concentrations plus control. Aliquots of 0.1 mL of these different drug dilutions were added to the appropriate microtiter wells already containing 0.1 mL of medium, resulting in the required final drug concentrations.
Following drug addition, the plates were incubated at 37 °C, 5% carbon dioxide, 95% air, and 100% relative humidity for an additional 48 hours. For adherent cells, the test was finished by the addition of cold Cl3COOH. Cells were fixed in situ by the addition of 50 μL of cold 50% (w/v) Cl3COOH, and incubated at 4 °C for 1 hour. The supernatant was discarded, and the plates were washed with H2O (5×) and dried in air. Sulforhodamine B (SRB) solution (0.1 mL) at 0.4% (w/v) in 1% CH3COOH was added to each well, and plates were incubated at RT for 10 min. After staining, the unbound dye was removed by washing five times with 1% CH3COOH, and the plates were dried in the air. The bound stain is afterward solubilized with a 10 mM trizma base, and the absorbance is read on an automated plate reader at λ = 515 nm. Utilizing the seven absorbance measurements [time zero (tz), control growth (c), and test growth in the presence of the drug at the five concentration levels (ti)], the percentage growth was determined at each of the drug concentration levels. Growth inhibition (%) was calculated as:
[(ti − tz)/(c − tz)] × 100, for concentrations where ti ≥ tz (1) […]

TK-10 = assay: NCI60 one-dose screen; conditions: Homo sapiens; TK-10, 10 μM; read-out: Growth percent
Summary of the method: (§1)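 Readings at 515 nm of bound sulforhodamine B gave percent growth versus a no-drug control and the time-zero population, where −100 means all cells dead. Cells had been exposed to a 10 µM single dose for 48 h.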

NCI-H23 = assay: NCI60 one-dose screen; conditions: Homo sapiens; NCI-H23, 10 μM; read-out: Growth percent
Summary of the method: as §1

SK-MEL-5 = assay: NCI60 one-dose screen; conditions: Homo sapiens; SK-MEL-5, 10 μM; read-out: Growth percent
Summary of the method: as §1

U251 = assay: NCI60 one-dose screen; conditions: Homo sapiens, U-251; U251, 10 μM; read-out: Growth percent
Summary of the method: as §1

UACC-257 = assay: NCI60 one-dose screen; conditions: Homo sapiens; UACC-257, 10 μM; read-out: Growth percent
Summary of the method: as §1

NCI-H226 = assay: NCI60 one-dose screen; conditions: Homo sapiens; NCI-H226, 10 μM; read-out: Growth percent
Summary of the method: as §1

SK-OV-3 = assay: NCI60 one-dose screen; conditions: Homo sapiens; SK-OV-3, 10 μM; read-out: Growth percent
Summary of the method: as §1

HCT-15 = assay: NCI60 one-dose screen; conditions: Homo sapiens; HCT-15, 10 μM; read-out: Growth percent
Summary of the method: as §1

SK-MEL-28 = assay: NCI60 one-dose screen; conditions: Homo sapiens; SK-MEL-28, 10 μM; read-out: Growth percent
Summary of the method: as §1

BT-549 = assay: NCI60 one-dose screen; conditions: Homo sapiens; BT-549, 10 μM; read-out: Growth percent
Summary of the method: as §1

NCI-H460 = assay: NCI60 one-dose screen; conditions: Homo sapiens; NCI-H460, 10 μM; read-out: Growth percent
Summary of the method: as §1

OVCAR-8 = assay: NCI60 one-dose screen; conditions: Homo sapiens; OVCAR-8, 10 μM; read-out: Growth percent
Summary of the method: as §1

ACHN = assay: NCI60 one-dose screen; conditions: Homo sapiens, read-out: Growth percent
Summary of the method: as §1

SMILES	activity at 10 µM [1]	activity at 10 µM (TK-10)	activity at 10 µM (NCI-H23)	activity at 10 µM (SK-MEL-5)	activity at 10 µM (U251)	activity at 10 µM (UACC-257)	activity at 10 µM (NCI-H226)	activity at 10 µM (SK-OV-3)	activity at 10 µM (HCT-15)	activity at 10 µM (SK-MEL-28)	activity at 10 µM (BT-549)	activity at 10 µM (NCI-H460)	activity at 10 µM (OVCAR-8)	activity at 10 µM (ACHN)
O=c1cc(-c2ccccc2)oc2cc(OCCCC[P+](C3CCCCC3)(C3CCCCC3)C3CCCCC3)cc(O)c12 [3e]	-76%	-91.3%	-88.5%	-100%	-95.5%	-92.2%	-56.7%	-82.4%	-88.8%	-41.4%	-89.9%	-66%	-86.4%	-72.5%
COc1c(C)cc([P+](CCCCOc2cc(O)c3c(=O)cc(-c4ccccc4)oc3c2)(c2cc(C)c(OC)c(C)c2)c2cc(C)c(OC)c(C)c2)cc1C [3f]	-63.4%	-84.7%	-77.3%	-75.2%	-76.6%	-79.7%	-58.5%	-58.3%	-58.9%	-85.7%	-53.4%	-58.6%	-68.1%	-88.4%
Cc1ccccc1[P+](CCCCOc1cc(O)c2c(=O)cc(-c3ccccc3)oc2c1)(c1ccccc1C)c1ccccc1C [3g]	-97.7%	-99.3%	-98.4%	-97.9%	-97%	-99.3%	-99.4%	-97.9%	-94.7%	-98.4%	-98.1%	-91.5%	-95.9%	-97%
O=c1cc(-c2ccccc2)oc2cc(OCCCC[P+](c3ccccc3)(c3ccccc3)c3ccccn3)cc(O)c12 [3h]	-72.3%	-93.3%	-89.3%	-96.3%	-96%	-89.8%	-50.4%	-76.5%	-88%	-94.7%	-69.7%	-84.2%	-91.6%	-98%
O=c1cc(-c2ccccc2)oc2cc(O)cc(O)c12 [compound 2, 5,7-dihydroxyflavone, reference compound]	96.1%	107%	92.6%	92.8%	80.7%	119%	86.8%	128%	81%	102%	91%	98.3%	95.2%	85%
